Source: PMC8234864, “Early Effects of the Soluble Amyloid β25-35 Peptide in Rat Cortical Neurons: Modulation of Signal Transduction Mediated by Adenosine and Group I Metabotropic Glutamate Receptors” (International Journal of Molecular Sciences, 2021)
Where no end group is shown, it is not given here.

Columns and labels:
[1] = system: Caspase 3 (Casp3) gene expression; assay: Caspase 3 gene expression by real-time RT-PCR; assay type: cell-based, rat; details: 25 µM
Experimental: (§1) Total RNA was extracted using an ABI 6100 Nucleic Acid PrepStation according to the manufacturer’s protocol (Applied Biosystems Inc., Foster City, CA, USA). Total RNA from cells was isolated and stored at −80 °C. The quality of isolated RNA was estimated by the ratio A260/A280 and was in the range of 1.9–2.1. RNA integrity was evaluated by agarose gel electrophoresis according to MIQE guidelines using the “bleach gel” method. RNA concentrations were determined from the A260. One microgram of total RNA was reverse transcribed using Applied Biosystems High-Capacity cDNA Archive Kit.
(§2) To assess relative gene expression in neurons, quantitative real-time RT-PCR analysis was performed with an Applied Biosystems Prism 7500 Fast Sequence Detection System using TaqMan® universal PCR master mix according to the manufacturer’s specifications. […] Levels of RNA expression were determined using the 7500 Fast System SDS software version 1.3.1 (Applied Biosystems) according to the 2^−ΔΔCt method. […] The results from three independent repeat assays, performed in different plates each using different cDNA’s from the cultures analyzed, were averaged to produce a single mean quantity value for each mRNA.

A1R = molecular target: T1, A1R (Rattus norvegicus, UniProt P25099); assay: [3H]DPCPX radioligand binding in intact cortical neurons; details: for Total A1R density (Bmax) increase over control value: 25 µM; for A1R Bmax: [3H]DPCPX saturation binding
T1 construct: endogenous in cells; host or cells: rat primary cortical neurons (intact)
T1 sequence (P25099 1-326): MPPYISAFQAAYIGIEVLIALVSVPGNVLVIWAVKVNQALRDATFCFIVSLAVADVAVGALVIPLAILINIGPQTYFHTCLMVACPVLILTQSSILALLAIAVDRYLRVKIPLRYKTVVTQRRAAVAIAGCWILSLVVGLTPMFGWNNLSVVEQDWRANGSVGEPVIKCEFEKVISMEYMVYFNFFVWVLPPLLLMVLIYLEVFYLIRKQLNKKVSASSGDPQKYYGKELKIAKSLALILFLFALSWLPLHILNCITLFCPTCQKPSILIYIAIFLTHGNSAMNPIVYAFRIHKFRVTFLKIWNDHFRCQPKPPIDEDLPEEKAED
Experimental: Concerning adenosine receptor assessment by radioligand binding, [^3H]DPCPX and [^3H]ZM241385 were employed as selective A1R and A2AR radioligands, as described previously, to determine A1R and A2AR density, respectively. Briefly, primary cortical neurons growth in 24-well plates were washed with serum-free DMEM and pre-incubated with 2 U/mL ADA at 37 °C for 30 min to remove endogenous adenosine. After incubation, the radioligands [^3H]DPCPX (1–20 nM) or [^3H] ZM241385 (1–20 nM) were added in the absence or the presence of CPA in a concentration 10^4 times higher than the radioligand, to obtain non-specific binding to A1R, or 5 mM theophylline, to obtain non-specific binding to A2AR. A specific adenosine uptake inhibitor (1 µM dipyridamole) was added to the reaction mixture to block adenosine receptor ligands’ binding to adenosine transporters. After incubation at 25 °C for 2 h in a final volume of 250 µL, cells were washed with 500 µL of ice-cold buffer and disrupted with 0.2% SDS. Well contents were then transferred to vials and a scintillation liquid mixture was added to measure radioactivity. Two wells from each plate were reserved for protein concentration measurement.

[2] = system: mGluR5 (GRM5) gene expression; assay: mGluR5 gene expression by real-time PCR; assay type: cell-based, rat; details: 25 µM, 24 or 48 h, vs control neurons
Experimental: as §1, §2

PLCβ1 = PLCβ1 immunocytochemistry in permeabilized neurons; assay type: cell-based, rat; details: 25 µM, 24 h
Experimental: For PLCβ1 immunostaining, the protocol described above was followed with the introduction of modified steps. Before the nonspecific staining blockade with 3% normal goat serum, cells were pre-treated with Triton 0.25% in LB for 10 min to induce membrane permeabilization. Cells were incubated overnight in blocking buffer with mouse anti-PLCβ1 monoclonal antibody (1:500) from Millipore (Bedford, MA, USA). The following day, after three LB washes (10 min each), cortical neurons were exposed to Cy3-conjugated goat anti-mouse IgG (1:600). In all immunochemical procedures, internal controls were carried out where primary antibodies were not added to the blocking buffer.
To evaluate the degree of fluorescence intensity in cortical neurons, fluorescence was measured to estimate the protein expression in the different experimental conditions analyzed. Images (448.6 µm × 335.08 µm) obtained with a digital camera (Leica DFC350FX R2), attached to a Leica DMI6000B (Leica Microsystems, Wetzlar, Germany) fluorescent microscope, were used for quantification (20x HCX PL FLUOTAR 0.4 dry objective). […] Fluorescence intensity was estimated by averaging mean grey values. […] Data were normalized to the total number of cells in the analyzed fields. The mean fluorescence background, calculated in the unstained regions between neurons, was subtracted from the fluorescence intensity of each data point. […]

[3] = neurons exposed to 25 µM for 24 h
[4] = neurons exposed to 25 µM for 48 h

GSNKGAIIGLM [Aβ25-35]
caspase 3 gene expression ([1]; 24 h): significant increase | caspase 3 gene expression ([1]; 48 h): significant increase | Total A1R density (Bmax) increase over control value (A1R; 24 h): 265% | Total A1R density (Bmax) increase over control value (A1R; 48 h): 184% | Kd (A1R; [3]): 7.51 ± 2.35 nM | A1R Bmax (A1R; [3]): 545 ± 101 fmol/mg prot | Kd (A1R; [4]): 5.51 ± 1.33 nM | A1R Bmax (A1R; [4]): 423 ± 66 fmol/mg prot | mGluR5 gene expression [2]: did not present any significant variation | total PLCβ1 protein decrease over control value (PLCβ1): 40%
